Source: PMC3561128, “Preclinical evaluation of carbon-11 and fluorine-18 sulfonamide derivatives for in vivo radiolabeling of erythrocytes” (EJNMMI Research, 2013)

Key:
[1] = Biodistribution studies in NMRI mice; assay type: in vivo; conditions: i.v.; for Percentage of ID, blood: blood mass assumed 7% of body mass
Method: The biodistribution studies were performed in wild-type NMRI mice with body weights ranging from 30 to 40 g. Mice were intravenously injected with 0.1 MBq of ^18F]-(3) or ^18F]-(5) and 5.5 MBq of ^11C]-(4) or ^11C]-(6) under anesthesia (2% isoflurane in O2 at a flow rate of 1 L/min). The animals were killed by decapitation at 2 min or 60 min p.i. (n = 4/time point for ^18F]-(3), ^11C]-(4), and ^11C]-(6); n = 6 for ^18F]-(5)). Blood was collected, and all major organs were dissected and collected in tarred tubes and were weighed. The radioactivity in each organ was counted using an automated gamma counter, corrected for background radioactivity and expressed as follows: percentage of the injected dose (% ID) or as standardized uptake value (SUV) (SUV = (Counts in tissue per gram of tissue) / (Injected counts per total body mass (g)). For the calculation of total radioactivity in the blood, blood mass was assumed to be 7% of the body mass.

[2] = Dynamic micro-PET scan in rats; assay type: in vivo, Wistar rat
Method: PET images were acquired on a FOCUS 220 tomograph (Siemens/Concorde Microsystems, Knoxville, TN, USA). During all scan sessions, rats were anesthetized (2.5% isoflurane in O2 at a flow rate of 1 L/min) and scanned in prone position. [^18F]-(5) (37 MBq) was administered via the tail vein, and a 1-h dynamic scan was acquired. The images were acquired in list mode and binned in sinograms using a 21-dynamic frame protocol (4 × 15, 4 × 60, 5 × 180, 8 × 300 s). Reconstruction was performed with the Focus 220 software (using Fourier rebinning, followed by two-dimensional (2D) OSEM algorithm), and data were analyzed using PMOD (version 2.65; PMOD, Zurich, Switzerland). The radioactivity concentration in the heart region was expressed as SUVs as a function of time after injection of the radiotracer.

## [11CH3]Oc1ccc(C(=O)NCCc2ccc(S(N)(=O)=O)cc2)cc1 [[^11C]-(4), 4-[^11C]methoxybenzoyl aminoethylbenzenesulfonamide]
[1]; 2 min p.i.
  Percentage of ID, brain: 0.2 ± 0.0 % ID
  Percentage of ID, carcass: 17.6 ± 1.5 % ID
  Percentage of ID, heart: 0.5 ± 0.1 % ID
  Percentage of ID, intestines: 3.6 ± 1.3 % ID
  Percentage of ID, kidneys: 8.1 ± 1.3 % ID
  Percentage of ID, liver: 8.4 ± 0.7 % ID
  Percentage of ID, lungs: 4.9 ± 2.5 % ID
  Percentage of ID, spleen + pancreas: 0.6 ± 0.1 % ID
  Percentage of ID, stomach: 0.7 ± 0.1 % ID
  Percentage of ID, urine: 0.4 ± 0.1 % ID
  SUV, blood: 12.9 ± 0.8
  SUV, brain: 0.2 ± 0.0
  SUV, heart: 1.2 ± 0.2
  SUV, kidneys: 4.3 ± 0.7
  SUV, liver: 1.5 ± 0.2
  SUV, lungs: 6.0 ± 1.6
  SUV, spleen: 0.9 ± 0.1
  Percentage of ID, blood: 90.5 ± 5.9 % ID
[1]; 60 min p.i.
  Percentage of ID, brain: 0.3 ± 0.0 % ID
  Percentage of ID, carcass: 21.2 ± 2.8 % ID
  Percentage of ID, heart: 0.5 ± 0.1 % ID
  Percentage of ID, intestines: 12.4 ± 0.8 % ID
  Percentage of ID, kidneys: 4.1 ± 0.3 % ID
  Percentage of ID, liver: 9.2 ± 1.1 % ID
  Percentage of ID, lungs: 4.2 ± 1.1 % ID
  Percentage of ID, spleen + pancreas: 0.8 ± 0.1 % ID
  Percentage of ID, stomach: 2.6 ± 0.3 % ID
  Percentage of ID, urine: 4.4 ± 2.7 % ID
  SUV, blood: 10.4 ± 1.1
  SUV, brain: 0.2 ± 0.0
  SUV, heart: 1.0 ± 0.3
  SUV, kidneys: 2.5 ± 0.2
  SUV, liver: 1.9 ± 0.3
  SUV, lungs: 4.7 ± 0.7
  SUV, spleen: 1.1 ± 0.2
  Percentage of ID, blood: 72.5 ± 7.6 % ID

## [11CH3]Oc1ccc(S(N)(=O)=O)cc1 [[^11C]-(6), 4-[^11C]methoxybenzene sulfonamide]
[1]; 2 min p.i.
  Percentage of ID, brain: 0.7 ± 0.1 % ID
  Percentage of ID, carcass: 28.4 ± 2.0 % ID
  Percentage of ID, heart: 0.7 ± 0.2 % ID
  Percentage of ID, intestines: 5.2 ± 0.9 % ID
  Percentage of ID, kidneys: 3.7 ± 0.1 % ID
  Percentage of ID, liver: 6.9 ± 0.4 % ID
  Percentage of ID, lungs: 6.3 ± 2.7 % ID
  Percentage of ID, spleen + pancreas: 1.2 ± 0.1 % ID
  Percentage of ID, stomach: 1.5 ± 0.3 % ID
  Percentage of ID, urine: 0.3 ± 0.1 % ID
  SUV, blood: 11.9 ± 1.1
  SUV, brain: 0.7 ± 0.1
  SUV, heart: 1.6 ± 0.4
  SUV, kidneys: 2.4 ± 0.3
  SUV, liver: 1.5 ± 0.1
  SUV, lungs: 6.2 ± 2.1
  SUV, spleen: 1.9 ± 0.8
  Percentage of ID, blood: 83.4 ± 7.7 % ID
[1]; 60 min p.i.
  Percentage of ID, brain: 1.5 ± 0.1 % ID
  Percentage of ID, carcass: 26.1 ± 1.0 % ID
  Percentage of ID, heart: 0.4 ± 0.1 % ID
  Percentage of ID, intestines: 19.3 ± 1.0 % ID
  Percentage of ID, kidneys: 4.1 ± 0.6 % ID
  Percentage of ID, liver: 6.1 ± 0.5 % ID
  Percentage of ID, lungs: 3.1 ± 1.4 % ID
  Percentage of ID, spleen + pancreas: 2.3 ± 0.6 % ID
  Percentage of ID, stomach: 2.4 ± 0.2 % ID
  Percentage of ID, urine: 4.8 ± 0.3 % ID
  SUV, blood: 7.1 ± 0.7
  SUV, brain: 1.1 ± 0.1
  SUV, heart: 0.9 ± 0.1
  SUV, kidneys: 2.4 ± 0.2
  SUV, liver: 1.4 ± 0.2
  SUV, lungs: 3.5 ± 1.1
  SUV, spleen: 2.4 ± 0.4
  Percentage of ID, blood: 49.7 ± 4.8 % ID

## NS(=O)(=O)c1ccc(OCC[18F])cc1 [[^18F]-(5), 4-(2-[^18F]fluoroethoxy)benzenesulfonamide]
[2]; micro-PET
  Average SUV ratio heart-to-kidney: 2.5
  Average SUV ratio heart-to-liver: 4
  Average SUV ratio heart-to-spleen: 2.3
  Bone uptake (in vivo defluorination): no bone uptake was observed
  Heart region SUV at 60 min relative to the 2-min value: 75%
[2]; micro-PET time activity curves, 37 MBq i.v.
  SUV, heart: 2.5
[1]; 2 min p.i.
  Percentage of ID, brain: 0.3 ± 0.0 % ID
  Percentage of ID, carcass: 18.8 ± 1.6 % ID
  Percentage of ID, heart: 0.6 ± 0.1 % ID
  Percentage of ID, intestines: 2.9 ± 0.4 % ID
  Percentage of ID, kidneys: 4.1 ± 0.8 % ID
  Percentage of ID, liver: 6.0 ± 1.1 % ID
  Percentage of ID, lungs: 7.3 ± 3.9 % ID
  Percentage of ID, spleen + pancreas: 1.1 ± 0.1 % ID
  Percentage of ID, stomach: 0.8 ± 0.2 % ID
  Percentage of ID, urine: 0.3 ± 0.1 % ID
  SUV, blood: 17.3 ± 2.5
  SUV, brain: 0.5 ± 0.1
  SUV, heart: 1.6 ± 0.4
  SUV, kidneys: 3.1 ± 0.6
  SUV, liver: 1.4 ± 0.3
  SUV, lungs: 9.3 ± 2.9
  SUV, spleen: 2.1 ± 0.7
  Percentage of ID, blood: 106.3 ± 5.2 % ID
[1]; 60 min p.i.
  Percentage of ID, brain: 1.0 ± 0.1 % ID
  Percentage of ID, carcass: 22.4 ± 1.5 % ID
  Percentage of ID, heart: 0.6 ± 0.2 % ID
  Percentage of ID, intestines: 9.6 ± 2.8 % ID
  Percentage of ID, kidneys: 3.7 ± 1.1 % ID
  Percentage of ID, liver: 4.0 ± 0.2 % ID
  Percentage of ID, lungs: 1.8 ± 0.6 % ID
  Percentage of ID, spleen + pancreas: 0.9 ± 0.4 % ID
  Percentage of ID, stomach: 4.2 ± 3.1 % ID
  SUV, blood: 11.1 ± 1.2
  SUV, brain: 1.4 ± 0.2
  SUV, heart: 1.7 ± 0.5
  SUV, kidneys: 2.5 ± 0.4
  SUV, liver: 1.0 ± 0.1
  SUV, lungs: 3.8 ± 0.4
  SUV, spleen: 2.2 ± 0.8
  Percentage of ID, blood: 71.0 ± 14.5 % ID
